Measurements from patent US11590154B2, “Triple antibiotic fixed-dose combination products, dosing regimen, methods, and kits for treating pulmonary non-tuberculosis mycobacterial infections” (priority 2020, dated 2023).
“Also recorded” adds a separate entry of the source.

How the values were obtained:
[1] = epithelial lining fluid to total plasma/serum; cited from earlier work
MAC bacteria = assay type: cell-based, Mycobacterium avium complex; conditions: 2×MIC; starting inoculum 5.5 log10 CFU/ml
Procedure: In vitro, efficacy was studied in static time-kill kinetics assays (at 2×minimum inhibitory concentration [MIC]), intended to mirror a desired peak serum concentration for all three antibiotics using an established assay. All experiments were performed with a starting inoculum of 5.5 log10 CFU/ml MAC bacteria, higher than the bacterial load expected in the airway secretions of patients with mild nodular-bronchiectatic disease due to MAC.

MAC [2] = experiment: MIC of the MAC strains used in the HFS-MAC studies; assay type: cell-based, Mycobacterium avium complex; conditions: Mycobacterium avium
Procedure: The MAC strain used in the HFS-MAC studies was ATCC strain 700898. The study center also had 5 well-characterized clinical strains that have undergone whole-genome sequencing and habituation to the HFS-MAC. Stock cultures of MAC were stored at −80° C. in Middlebrook 7H9 broth with 10% OADC and 10% glycerol. THP-1 monocytes were stored in liquid nitrogen and have been habituated for the HFS-MAC growth conditions.

[3] = test system: intracellular MAC in THP-1 monocytes; experiment: Hollow fiber system model of MAC (HFS-MAC): microbial kill; assay type: cell-based, Mycobacterium avium complex; conditions: HF experiments
Procedure: The anti-mycobacterial effects of CLR, CFZ, and RFB was evaluated in the hollow fiber system model of MAC (HFS-MAC), which recapitulates the intrapulmonary concentrations of these antibiotics. The HFS-MAC allows for an assessment of the contribution of individual drug components in terms of anti-mycobacterial effects and enables exploration of potential synergy, additivity, or antagonism of different doses of drugs and combination regimens on the log-phase growth of intracellular MAC, for both microbial kill and resistance suppression.
A two-part investigation was conducted to assess the contribution of components of various FDC products comprising CLR, CFZ, and RFB in terms of depth and rate of MAC kill and suppression of the emergence of resistance. The anti-MAC activity of each antibiotic component was evaluated as one-drug alone; as two-drug combinations and the three-drug combination. For each combination (singlet, doublet or triplet), the drug concentrations were sampled from the HF fluid bathing MAC-infected cells. […] Anti-MAC activity was evaluated by kill slopes defined as the kill rate constant (and the half-life of kill [reciprocal of the kill rate constant]) as well as the maximum kill, defined as the maximum reduction in MAC CFUs and compared between the different antibiotic combinations.
MAC was grown into log-phase for 4 days, parallel with cultivation of THP-1 monocytes. The THP-1 cells were then infected with MAC overnight at a multiplicity of infection of 1:1. The THP-1 cells were washed to remove extracellular bacteria, and 20 mL of 1×10^6 (6.0 log10) cells/mL were inoculated into each HFS-MAC on Study Day 0. The peripheral compartment is the abluminal hollow fibers space that is also enclosed by the plastic, while the intraluminal space and flow path form the central compartment. […]

M. avium = experiment: MIC of antibiotics by broth microdilution, M. avium strains of Examples 3 and 4; assay type: cell-based, Mycobacterium avium subsp. hominissuis; conditions: for minimum inhibitory concentrations (MICs) used for antibiotic plates: 7H10 agar plates for tissue CFU counts
Procedure: Susceptibility testing was conducted using broth microdilution single and twofold dilutions as described in the literature. Suspensions were prepared by swabs on a growth plate with a sterile cotton swab, or were prepared in broth culture. The growth was transferred to a 4.5 mL of phosphate buffer solution (PBS) until the turbidity matched the density of a 0.5 McFarland standard. Suspensions were then vigorously mixed on a vortex mixer for 15 to 20 seconds. The final inoculum was prepared to a bacterial density of 10^5. The tube was inverted 8-10 times to mix the suspension.
(§1) Following both the four-week and eight-week treatment period, mice were sacrificed, and lungs and spleens were harvested for CFU counts in each tissue and compared to CFUs recovered in the baseline and vehicle-treated groups. Tissue samples were plated with and without antibiotic on 7H10 agar. Antibiotic plates were made with minimum inhibitory concentrations (MICs) of 8 μg/ml for clarithromycin, and 0.25, μg/ml for both rifabutin (RFB) and clofazimine (CFZ). Plates were made for each of clarithromycin (CLR) alone, clarithromycin plus either rifabutin (CLR+RFB) or clofazimine (CLR+CFZ) and the three-drug combination (CLR+RFB+CFZ). All plates were incubated in a microbiological incubator at 37° C. for 14 days.

M. avium 104 biofilm = experiment: In vitro biofilm model of infection; assay type: cell-based, Mycobacterium avium subsp. hominissuis; conditions: mean ± SD; CLR 1.9-4.3 μg/mL, RFB 0.04 μg/mL, CFZ 0.0005 μg/mL
M. avium strain 104 = experiment: Mouse lung infection model, clarithromycin sensitive strain; assay type: in vivo, Mycobacterium avium subsp. hominissuis; conditions: for reduction in CFU relative to vehicle: 50 mg/kg
Procedure: as §1

MAC [4] = experiment: Lung histopathology of mice infected with MAC and treated for four and eight weeks; assay type: in vivo, Mycobacterium avium complex; conditions: 32 sections per group
Text: Lung and Spleen Histopathology of Mice Infected with MAC and Treated with FDC Components Alone and in Combination for Four and Eight Weeks of Treatment
Each of the experimental group had eight cut examined from each lung (8×2 lungs=16×2 mice=32 sections). Lungs were normal and not showing any pathology at pre-infection.

[5] = 7-day mouse tolerability and PK study; conditions: for Cavg (clarithromycin) / Cavg (rifabutin): AUCtlast/24 h; for AUC(0-t) / Cmax / Tmax: female, C57BL/6, mouse, po
Procedure: Sixty (60) female mice were tested, 12 per treatment groups: […]

NTM = conditions: mouse models of systemic and lung infection; preclinical literature; cited from earlier work
[6] = ATCC700898, MAC (ATCC 700898), laboratory strain

## CO[C@H]1/C=C/O[C@@]2(C)Oc3c(C)c(O)c4c(O)c(c(/C=N/N5CCN(C)CC5)c(O)c4c3C2=O)NC(=O)/C(C)=C\C=C\[C@H](C)[C@H](O)[C@@H](C)[C@@H](O)[C@@H](C)[C@H](OC(C)=O)[C@@H]1C [rifampin]
[1]
  ELF:plasma ratio: approximately 0.34

## CC[C@H]1OC(=O)[C@H](C)[C@@H](O[C@H]2C[C@@](C)(OC)[C@@H](O)[C@H](C)O2)[C@H](C)[C@@H](O[C@@H]2O[C@H](C)C[C@H](N(C)C)[C@H]2O)[C@](C)(OC)C[C@@H](C)C(=O)[C@H](C)[C@@H](O)[C@]1(C)O [Clarithromycin, clarithromycin]
MAC bacteria
  activity as single drugs: bacteriostatic activity
MAC [2]; [6]
  MIC: 0.25 µg/mL
MAC [2]; Clinical strain #1
  MIC: 0.125 µg/mL
MAC [2]; Clinical strain #2
  MIC: 0.5 µg/mL
MAC [2]; Clinical strain #3
  MIC: 32 µg/mL
MAC [2]; Clinical strain #4
  MIC: 0.25 µg/mL
MAC [2]; Clinical strain #5
  MIC: 0.125 µg/mL
[3]
  effect on CFUs / MAC killing, summary: reductions in colony forming units
M. avium
  minimum inhibitory concentrations (MICs) used for antibiotic plates: 8 µg/mL
M. avium; Mycobacterium avium, clarithromycin resistant sub-subpopulation, 23 S RNA gene mutation
  MIC: > 128 µg/mL
M. avium 104 biofilm
  Colony Forming Unit Concentration, Four Days: 1.35 ± 0.3 × 10^7 CFU/mL
  Colony Forming Unit Concentration, Seven Days: 1.07 ± 0.3 × 10^7 CFU/mL
M. avium strain 104; after eight weeks of treatment
  reduction in CFU relative to vehicle: ~2 log unit
M. avium strain 104; after four weeks of treatment
  reduction in CFU relative to vehicle: approximately 1 log unit
M. avium strain 104; clarithromycin monotherapy treatment
  CFUs resistant to clarithromycin in one animal: 200 CFUs
MAC [4]
  Lung Histopathology Findings: Diffuse congestion; bacteria in granulomas
[5]; Day 7, CLR 100 mg/kg alone
  Cavg (clarithromycin): 729 ng/mL
[5]; Day 7, CLR 200 mg/kg alone
  Cavg (clarithromycin): 1,425 ng/mL
[5]; Day 7, CLR 200 mg/kg with RFB 60 mg/kg and CFZ 30 mg/kg
  Cavg (clarithromycin): 2,704 ng/mL
[5]; plasma, 100 mg/kg, AUCtlast (clarithromycin), Day 1, CLR 100 mg/kg alone, oral, mouse plasma
  AUC(0-t): 11100 ng·h/mL
[5]; plasma, 100 mg/kg, AUCtlast (clarithromycin), Day 7, CLR 100 mg/kg alone, oral once daily, mouse plasma
  AUC(0-t): 17500 ng·h/mL
[5]; plasma, 100 mg/kg, Cmax (clarithromycin), Day 1, CLR 100 mg/kg alone, oral, mouse plasma
  Cmax: 3400 ng/mL
[5]; plasma, 100 mg/kg, Cmax (clarithromycin), Day 7, CLR 100 mg/kg alone, oral once daily, mouse plasma
  Cmax: 6130 ng/mL
[5]; plasma, 100 mg/kg, tmax (clarithromycin), Day 1, CLR 100 mg/kg alone, oral, mouse plasma
  Tmax: 1 h
[5]; plasma, 100 mg/kg, tmax (clarithromycin), Day 7, CLR 100 mg/kg alone, oral once daily, mouse plasma
  Tmax: 1 h
[5]; plasma, 200 mg/kg, AUCtlast (clarithromycin), Day 1, CLR 200 mg/kg alone, oral, mouse plasma
  AUC(0-t): 36200 ng·h/mL
[5]; plasma, 200 mg/kg, AUCtlast (clarithromycin), Day 1, CLR 200 mg/kg with RFB 60 mg/kg and CFZ 30 mg/kg, oral, mouse plasma
  AUC(0-t): 44200 ng·h/mL
[5]; plasma, 200 mg/kg, AUCtlast (clarithromycin), Day 7, CLR 200 mg/kg alone, oral once daily, mouse plasma
  AUC(0-t): 34200 ng·h/mL
[5]; plasma, 200 mg/kg, AUCtlast (clarithromycin), Day 7, CLR 200 mg/kg with RFB 60 mg/kg and CFZ 30 mg/kg, oral once daily, mouse plasma
  AUC(0-t): 64900 ng·h/mL
[5]; plasma, 200 mg/kg, Cmax (clarithromycin), Day 1, CLR 200 mg/kg alone, oral, mouse plasma
  Cmax: 9110 ng/mL
[5]; plasma, 200 mg/kg, Cmax (clarithromycin), Day 1, CLR 200 mg/kg with RFB 60 mg/kg and CFZ 30 mg/kg, oral, mouse plasma
  Cmax: 8370 ng/mL
[5]; plasma, 200 mg/kg, Cmax (clarithromycin), Day 7, CLR 200 mg/kg alone, oral once daily, mouse plasma
  Cmax: 7430 ng/mL
[5]; plasma, 200 mg/kg, Cmax (clarithromycin), Day 7, CLR 200 mg/kg with RFB 60 mg/kg and CFZ 30 mg/kg, oral once daily, mouse plasma
  Cmax: 10100 ng/mL
[5]; plasma, 200 mg/kg, tmax (clarithromycin), Day 1, CLR 200 mg/kg alone, oral, mouse plasma
  Tmax: 1 h
[5]; plasma, 200 mg/kg, tmax (clarithromycin), Day 1, CLR 200 mg/kg with RFB 60 mg/kg and CFZ 30 mg/kg, oral, mouse plasma
  Tmax: 1 h
[5]; plasma, 200 mg/kg, tmax (clarithromycin), Day 7, CLR 200 mg/kg alone, oral once daily, mouse plasma
  Tmax: 1 h
[5]; plasma, 200 mg/kg, tmax (clarithromycin), Day 7, CLR 200 mg/kg with RFB 60 mg/kg and CFZ 30 mg/kg, oral once daily, mouse plasma
  Tmax: 1 h
NTM
  Effective Dose: 50 to 100 mg/kg/day
[1]
  ELF:plasma ratio: 3.4-7.8

## CO[C@H]1/C=C/O[C@@]2(C)Oc3c(C)c(O)c4c(c3C2=O)C2=NC3(CCN(CC(C)C)CC3)NC2=C(NC(=O)/C(C)=C\C=C\[C@H](C)[C@H](O)[C@@H](C)[C@@H](O)[C@@H](C)[C@H](OC(C)=O)[C@@H]1C)C4=O [Rifabutin, rifabutin]
MAC bacteria
  activity as single drugs: bacteriostatic activity
MAC [2]; [6]
  MIC: 0.0625 µg/mL
MAC [2]; Clinical strain #1
  MIC: 0.125 µg/mL
MAC [2]; Clinical strain #2
  MIC: 0.125 µg/mL
MAC [2]; Clinical strain #3
  MIC: 0.125 µg/mL
MAC [2]; Clinical strain #4
  MIC: 2 µg/mL
MAC [2]; Clinical strain #5
  MIC: 0.125 µg/mL
[3]
  effect on CFUs / MAC killing, summary: CFU counts increased
M. avium
  minimum inhibitory concentrations (MICs) used for antibiotic plates: 0.25 µg/mL
M. avium 104 biofilm
  Colony Forming Unit Concentration, Four Days: 1.41 ± 0.5 × 10^7 CFU/mL
  Colony Forming Unit Concentration, Seven Days: 1.64 ± 0.3 × 10^7 CFU/mL
MAC [4]
  Lung Histopathology Findings: Diffuse congestion; also recorded: Infiltrates of lymphocytes are also observed in multiple locations
[5]; Day 7, RFB 20 mg/kg alone
  Cavg (rifabutin): 1,117 ng/mL
[5]; Day 7, RFB 60 mg/kg alone
  Cavg (rifabutin): 2,558 ng/mL
[5]; Day 7, RFB 60 mg/kg with CLR 200 mg/kg and CFZ 30 mg/kg
  Cavg (rifabutin): 4,541 ng/mL
[5]; in vivo, 20 mg/kg
  Tmax: 1 h
[5]; in vivo, 20 mg/kg, AUCtlast (rifabutin), Day 1, RFB 20 mg/kg alone, oral, mouse plasma
  AUC(0-t): 22100 ng·h/mL
[5]; in vivo, 20 mg/kg, AUCtlast (rifabutin), Day 7, RFB 20 mg/kg alone, oral once daily, mouse plasma
  AUC(0-t): 26800 ng·h/mL
[5]; in vivo, 20 mg/kg, Cmax (rifabutin), Day 1, RFB 20 mg/kg alone, oral, mouse plasma
  Cmax: 2310 ng/mL
[5]; in vivo, 20 mg/kg, Cmax (rifabutin), Day 7, RFB 20 mg/kg alone, oral once daily, mouse plasma
  Cmax: 3140 ng/mL
[5]; in vivo, 60 mg/kg
  Tmax: 1 h
[5]; in vivo, 60 mg/kg, AUCtlast (rifabutin), Day 1, RFB 60 mg/kg alone, oral, mouse plasma
  AUC(0-t): 60200 ng·h/mL
[5]; in vivo, 60 mg/kg, AUCtlast (rifabutin), Day 1, RFB 60 mg/kg with CLR 200 mg/kg and CFZ 30 mg/kg, oral, mouse plasma
  AUC(0-t): 60400 ng·h/mL
[5]; in vivo, 60 mg/kg, AUCtlast (rifabutin), Day 7, RFB 60 mg/kg alone, oral once daily, mouse plasma
  AUC(0-t): 61400 ng·h/mL
[5]; in vivo, 60 mg/kg, AUCtlast (rifabutin), Day 7, RFB 60 mg/kg with CLR 200 mg/kg and CFZ 30 mg/kg, oral once daily, mouse plasma
  AUC(0-t): 109000 ng·h/mL
[5]; in vivo, 60 mg/kg, Cmax (rifabutin), Day 1, RFB 60 mg/kg alone, oral, mouse plasma
  Cmax: 5650 ng/mL
[5]; in vivo, 60 mg/kg, Cmax (rifabutin), Day 1, RFB 60 mg/kg with CLR 200 mg/kg and CFZ 30 mg/kg, oral, mouse plasma
  Cmax: 5300 ng/mL
[5]; in vivo, 60 mg/kg, Cmax (rifabutin), Day 7, RFB 60 mg/kg alone, oral once daily, mouse plasma
  Cmax: 5760 ng/mL
[5]; in vivo, 60 mg/kg, Cmax (rifabutin), Day 7, RFB 60 mg/kg with CLR 200 mg/kg and CFZ 30 mg/kg, oral once daily, mouse plasma
  Cmax: 5720 ng/mL
NTM
  Effective Dose: 10 mg/kg/day
